In article PMC7044277 (Nature Communications, 2020):
“And” between values parts separate entries of the source, which are not always exact repeats. Identical values can stand only once.

Key:
[1] = biological target: DRD2 (D2 long receptor) wild-type (Homo sapiens, UniProt P14416); experiment: Radioligand competition binding, [3H]-N-methylspiperone, HEK293T membranes; conditions: DRD2; [3H]-methylspiperone (0.8-1.0 nM); read-out: Ki
[2] = biological target: DRD3 wild-type (Homo sapiens, UniProt P35462); experiment: Radioligand competition binding, [3H]-N-methylspiperone; conditions: DRD3 wild-type; read-out: pKi ± SEM (converted)
DRD3 wild-type, sequence (P35462 whole entry): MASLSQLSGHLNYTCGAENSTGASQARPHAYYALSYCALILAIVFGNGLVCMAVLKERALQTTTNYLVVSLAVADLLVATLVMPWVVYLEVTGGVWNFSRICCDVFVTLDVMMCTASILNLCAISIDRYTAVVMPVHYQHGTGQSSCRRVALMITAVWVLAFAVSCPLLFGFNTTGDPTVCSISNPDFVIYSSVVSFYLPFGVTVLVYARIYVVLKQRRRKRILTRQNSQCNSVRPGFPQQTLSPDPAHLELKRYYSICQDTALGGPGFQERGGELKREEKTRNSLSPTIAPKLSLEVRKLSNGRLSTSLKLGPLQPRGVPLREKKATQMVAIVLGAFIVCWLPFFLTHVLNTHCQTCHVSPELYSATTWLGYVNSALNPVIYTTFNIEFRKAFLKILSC

[3] = biological target: DRD3 F1063.28A (Homo sapiens, UniProt P35462, F106A); experiment: biochemical; format: binding
DRD3 F1063.28A, sequence (P35462 whole entry F106A): as the sequence (P35462 whole entry) above, with F106A counted along it

[4] = biological target: DRD2 (D2 long receptor) (Homo sapiens, UniProt P14416); experiment: Gαi/o-mediated cAMP inhibition (GloSensor split-luciferase cAMP reporter), HEK293T; format: cell-based; conditions: for response, Fig_S11d dose-response source data: replicate values; for Response, Fig_S11b dose-response: individual replicates;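 for all read-outs here: compounds applied 15 min at room temperature, then luciferin plus 400 nM isoproterenol to raise cAMP through endogenous β2-adrenergic receptors, luminescence read 15 min later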
DRD2 (D2 long receptor), sequence (P14416 whole entry): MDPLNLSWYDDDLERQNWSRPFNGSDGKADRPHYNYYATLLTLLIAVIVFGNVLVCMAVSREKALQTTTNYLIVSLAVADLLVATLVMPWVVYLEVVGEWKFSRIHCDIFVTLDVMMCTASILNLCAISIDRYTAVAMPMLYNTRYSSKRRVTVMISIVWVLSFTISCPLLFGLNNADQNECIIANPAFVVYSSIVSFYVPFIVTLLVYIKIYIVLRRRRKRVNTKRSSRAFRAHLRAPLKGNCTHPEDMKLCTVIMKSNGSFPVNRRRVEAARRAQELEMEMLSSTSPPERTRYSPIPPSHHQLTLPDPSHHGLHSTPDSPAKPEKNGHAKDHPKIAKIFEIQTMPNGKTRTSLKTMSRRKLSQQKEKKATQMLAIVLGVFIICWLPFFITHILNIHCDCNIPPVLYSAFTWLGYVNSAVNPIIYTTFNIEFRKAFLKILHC

[5] = biological target: T1, DRD4 (D4.4 variant) (Homo sapiens, UniProt P21917); experiment: Gαi/o-mediated cAMP inhibition (GloSensor); format: cell-based; conditions: DRD4; agonist, cAMP inhibition; read-out: EC50 ± SEM
T1 sequence (P21917 1-419): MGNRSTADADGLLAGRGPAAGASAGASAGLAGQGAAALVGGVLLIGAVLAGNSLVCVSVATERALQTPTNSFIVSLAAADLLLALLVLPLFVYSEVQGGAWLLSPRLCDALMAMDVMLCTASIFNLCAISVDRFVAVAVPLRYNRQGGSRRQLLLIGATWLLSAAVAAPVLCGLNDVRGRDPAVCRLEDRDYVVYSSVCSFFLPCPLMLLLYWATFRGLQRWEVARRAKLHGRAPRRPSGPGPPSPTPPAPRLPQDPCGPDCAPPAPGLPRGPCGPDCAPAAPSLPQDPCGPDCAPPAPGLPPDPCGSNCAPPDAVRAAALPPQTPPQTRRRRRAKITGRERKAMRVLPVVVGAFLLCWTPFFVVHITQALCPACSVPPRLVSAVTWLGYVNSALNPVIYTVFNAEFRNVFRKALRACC

[6] = biological target: T2, DRD2 F1103.28L (Homo sapiens, UniProt P14416, F110L); experiment: Gαi/o-mediated cAMP inhibition (GloSensor), mutant; format: cell-based
T2 construct: expressed in transfected cells; host or cells: HEK293T (ATCC CRL-11268)
T2 sequence (P14416 whole entry F110L): as the sequence (P14416 whole entry) above, with F110L counted along it

[7] = biological target: DRD3 (Homo sapiens, UniProt P35462); experiment: β-arrestin2 recruitment (Tango); format: cell-based; conditions: DRD3, Tango
DRD3, sequence (P35462 whole entry): as the sequence (P35462 whole entry) above

[8] = biological target: T3, DRD2 F1103.28A (Homo sapiens, UniProt P14416, F110A); experiment: Gαi/o-mediated cAMP inhibition (GloSensor), mutant; format: cell-based; parameters: expressed in transfected cells; host or cells: HEK293T (ATCC CRL-11268)
T3 sequence (P14416 whole entry F110A): as the sequence (P14416 whole entry) above, with F110A counted along it

[9] = biological target: T3, DRD2 F1103.28A; experiment: β-arrestin2 recruitment (Tango), mutant; format: cell-based; parameters: expressed in transfected cells; host or cells: HEK293T (ATCC CRL-11268)

DRD2 (D2 long receptor) wild-type, sequence (P14416 whole entry): as the sequence (P14416 whole entry) above

**Q.** Which Ki [1] does the source give for `CCOc1cccc2cc(C(C)NCC3(O)CCCCC3)oc12` (stereo not shown) [O4LE6] here?
**A.** 1910 nM and 1900 nM

**Q.** What about the Ki [2] of the same compound?
**A.** 224 nM

**Q.** And the Ki [3]?
**A.** 460 nM

**Q.** What about the “affinity decreased, mutant vs wild type” value ([3]; DRD3 Phe106^3.28Ala vs wild-type DRD3) of the same compound?
**A.** 2.09 fold

**Q.** And the EC50 ([4]; DRD2, agonist, Gαi/o-mediated cAMP inhibition, read-out: EC50 ± SEM)?
**A.** 0.57 nM

**Q.** And the “response, Fig_S11d dose-response source data” value ([4]; Log[Drug] -6.52)?
**A.** 93.5634

**Q.** What about the “response, Fig_S11d dose-response source data” value ([4]; Log[Drug] -7) of the same compound?
**A.** 91.3799 and 89.9656 and 96.7642 and 92.7028 and 90.0117 and 92.9852 and 92.6706 and 90.0792 and 94.9443

**Q.** And the “response, Fig_S11d dose-response source data” value ([4]; Log[Drug] -7.52)?
**A.** 89.3701 and 83.9361 and 92.3724 and 89.5789 and 91.7807 and 86.0032 and 96.0478 and 86.7857 and 84.4618

**Q.** And the “response, Fig_S11d dose-response source data” value ([4]; Log[Drug] -8)?
**A.** 70.6367 and 72.3736 and 84.6805 and 78.0803 and 77.3651 and 77.1016 and 86.6519 and 79.5632 and 77.7576

**Q.** And the “response, Fig_S11d dose-response source data” value ([4]; Log[Drug] -8.52)?
**A.** 93.2656 and 95.6724 and 92.9431 and 77.1769 and 79.2659 and 71.4182 and 77.4232 and 75.6176 and 79.697

**Q.** And the “response, Fig_S11d dose-response source data” value ([4]; Log[Drug] -9)?
**A.** 51.5311 and 33.9143 and 52.5981 and 65.5842 and 66.7322 and 55.2712 and 58.2302 and 71.02 and 60.3368

**Q.** What about the “response, Fig_S11d dose-response source data” value ([4]; Log[Drug] -9.52) of the same compound?
**A.** 27.2398 and 43.5167 and 44.7822 and 40.3099 and 41.1379 and 42.7564 and 40.5085 and 50.7403 and 30.2265

**Q.** What about the “response, Fig_S11d dose-response source data” value ([4]; Log[Drug] -10) of the same compound?
**A.** 9.9455 and 25.9991 and 17.2652 and 20.7754 and 27.795 and 3.65 and 25.4283 and 30.0426 and 37.3152

**Q.** What about the “response, Fig_S11d dose-response source data” value ([4]; Log[Drug] -10.52) of the same compound?
**A.** 8.06 and 24.1134 and 23.7164 and -2.2029 and 14.9603 and -7.6605 and -4.2473 and 22.3855 and 15.9154

**Q.** And the “response, Fig_S11d dose-response source data” value ([4]; Log[Drug] -11)?
**A.** 4.9334 and 7.216 and -1.766 and -6.3996 and -4.3107 and -5.3646 and 21.048 and 18.6238 and 5.767

**Q.** What about the “response, Fig_S11d dose-response source data” value ([4]; Log[Drug] -11.52) of the same compound?
**A.** 10.5658 and 8.68 and -1.4434 and 5.588 and 4.9296 and 13.8311 and 19.0585 and 28.0698 and 34.2223

**Q.** What about the “response, Fig_S11d dose-response source data” value ([4]; Log[Drug] -12) of the same compound?
**A.** -7.7209 and 3.569 and -11.1202 and -5.7974 and -18.3122 and 14.3957 and 12.4212 and 21.7836 and -1.1209

**Q.** What about the Emax ([4]; HEK-293T, read-out: Emax relative to quinpirole response, DRD2, cAMP inhibition) of the same compound?
**A.** 94.8%

**Q.** And the “Response, Fig_S11b dose-response” value ([4]; Log[Drug] -5)?
**A.** 94.6799 and 95.4987 and 95.201 and 94.3966 and 96.6361 and 95.6198 and 95.7635 and 88.9256 and 95.1617

**Q.** What about the “Response, Fig_S11b dose-response” value ([4]; Log[Drug] -5.52) of the same compound?
**A.** 94.4814 and 96.3424 and 99.171 and 96.9372 and 94.2837 and 95.6198 and 98.4051 and 98.5221 and 95.5796

**Q.** What about the “Response, Fig_S11b dose-response” value ([4]; Log[Drug] -6) of the same compound?
**A.** 96.5905 and 98.1785 and 100.163 and 88.2615 and 91.4043 and 96.2597 and 93.8409 and 94.9611 and 95.7301

**Q.** What about the “Response, Fig_S11b dose-response” value ([4]; Log[Drug] -6.52) of the same compound?
**A.** 93.5634 and 99.7168 and 93.0671 and 101.473 and 96.4667 and 100.061 and 98.4218 and 97.9202 and 92.704

**Q.** And the “Response, Fig_S11b dose-response” value ([4]; Log[Drug] -7)?
**A.** 91.3799 and 89.9656 and 96.7642 and 92.7028 and 90.0117 and 92.9852 and 92.6706 and 90.0792 and 94.9443

**Q.** What about the “Response, Fig_S11b dose-response” value ([4]; Log[Drug] -7.52) of the same compound?
**A.** 89.3701 and 83.9361 and 92.3724 and 89.5789 and 91.7807 and 86.0032 and 96.0478 and 86.7857 and 84.4618

**Q.** What about the “Response, Fig_S11b dose-response” value ([4]; Log[Drug] -8) of the same compound?
**A.** 70.6367 and 72.3736 and 84.6805 and 78.0803 and 77.3651 and 77.1016 and 86.6519 and 79.5632 and 77.7576

**Q.** And the “Response, Fig_S11b dose-response” value ([4]; Log[Drug] -8.52)?
**A.** 93.2656 and 95.6724 and 92.9431 and 77.1769 and 79.2659 and 71.4182 and 77.4232 and 75.6176 and 79.697

**Q.** And the “Response, Fig_S11b dose-response” value ([4]; Log[Drug] -9)?
**A.** 51.5311 and 33.9143 and 52.5981 and 65.5842 and 66.7322 and 55.2712 and 58.2302 and 71.02 and 60.3368

**Q.** What about the “Response, Fig_S11b dose-response” value ([4]; Log[Drug] -11) of the same compound?
**A.** 4.9334

**Q.** And the “Response, Fig_S11b dose-response” value ([4]; Log[Drug] -11.52)?
**A.** 10.5658 and 8.68 and -1.4434 and 5.588 and 4.9296 and 13.8311 and 19.0585 and 28.0698 and 34.2223

**Q.** And the “Response, Fig_S11b dose-response” value ([4]; Log[Drug] -12)?
**A.** -7.7209 and 3.569 and -11.1202 and -5.7974 and -18.3122 and 14.3957 and 12.4212 and 21.7836 and -1.1209

**Q.** And the EC50 [5]?
**A.** > 10000 nM

**Q.** What about the EC50 ([6]; DRD2 F1103.28L (b138 head prints DRD2 F1063.28L)) of the same compound?
**A.** 11.3 ± 2.27 nM

**Q.** And the Emax ([6]; read-out: Emax relative to quinpirole response, DRD2 F1103.28L)?
**A.** 61%

**Q.** What about the EC50 ([7]; read-out: EC50 ± SEM) of the same compound?
**A.** 708.5 ± 6.3 nM

**Q.** And the Emax ([7]; read-out: Emax relative to quinpirole response)?
**A.** 15.8%

**Q.** And the EC50 [8]?
**A.** > 10000 nM

**Q.** And the EC50 [9]?
**A.** > 10000 nM
